According to patent US11814364B2, “Pyridine N-oxide derivatives useful as factor XIa inhibitors” (Janssen Pharmaceutica NV, priority 2021, dated 2023):

biological target: human plasma kallikrein (Homo sapiens, UniProt P03952); test: Kallikrein inhibition FLINT assay with quenched AMC peptide substrate Z-Gly-Pro-Arg-AMC (end point EP or kinetic KIN reads); assay type: biochemical; conditions: kinetic reads at 5 min intervals over 30 min; read-out: Kallikrein (KIN) IC50
Method in brief: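 Enzyme and compound were preincubated 30 min before adding 50 μM AMC substrate in pH 7.5 Tris/NaCl/CaCl2/BSA/CHAPS buffer. AMC release was read at 30 min endpoint or every 5 min.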

Chain of human plasma kallikrein (P03952 391-638 limits assumed): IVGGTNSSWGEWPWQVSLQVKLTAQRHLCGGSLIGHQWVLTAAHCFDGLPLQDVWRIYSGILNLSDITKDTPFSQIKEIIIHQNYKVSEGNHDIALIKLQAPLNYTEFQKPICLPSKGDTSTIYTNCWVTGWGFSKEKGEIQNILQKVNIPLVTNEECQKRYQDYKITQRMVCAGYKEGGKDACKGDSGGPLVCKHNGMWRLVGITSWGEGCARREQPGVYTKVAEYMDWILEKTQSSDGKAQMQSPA
Chain of human plasma kallikrein (P03952 20-390 partner limits assumed): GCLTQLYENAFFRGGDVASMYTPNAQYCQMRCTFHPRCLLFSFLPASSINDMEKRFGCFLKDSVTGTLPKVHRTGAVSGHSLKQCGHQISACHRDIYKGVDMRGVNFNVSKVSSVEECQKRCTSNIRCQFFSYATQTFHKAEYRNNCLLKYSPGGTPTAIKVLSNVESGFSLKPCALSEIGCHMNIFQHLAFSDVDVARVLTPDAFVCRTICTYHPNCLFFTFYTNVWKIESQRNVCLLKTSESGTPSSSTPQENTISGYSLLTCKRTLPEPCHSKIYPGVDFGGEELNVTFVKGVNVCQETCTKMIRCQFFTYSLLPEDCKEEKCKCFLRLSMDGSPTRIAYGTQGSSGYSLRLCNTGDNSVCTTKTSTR

Row | SMILES | IC50 [µM]
1 | CN(C)C(=O)c1ccn(CC(c2ccc(-c3c(-n4cnnn4)ccc(Cl)c3F)c[n+]2[O-])n2cc(-c3ccnc(C(F)(F)F)c3)cn2)n1 (single isomer, unassigned) [Example P451] | 0.0178
2 | COC(=O)Nc1ccc(-c2cnn(C(Cc3ccc(F)cc3)c3ccc(-c4c(-n5cnnn5)ccc(Cl)c4F)c[n+]3[O-])c2)cc1 (stereo not drawn) [Example P117] | 0.0097
3 | COc1cc(C(CC2CC2)n2cc(-c3ncnn3C(F)F)cn2)[n+]([O-])cc1-c1cc(Cl)ccc1-n1cc(C(F)(F)F)nn1 (single isomer, unassigned) [Example P940] | 0.0142
4 | [O-][n+]1cc(-c2c(-n3cnnn3)ccc(Cl)c2F)ccc1[C@@H](Cc1ccc(C(F)F)cc1)n1cc(-c2cnnn2C(F)F)cn1 [Example P731] | 0.0649
5 | Cn1ncnc1-c1cnn(C(CCOC(F)F)c2ccc(-c3c(-n4cc(C(F)(F)F)nn4)ccc(Cl)c3F)c[n+]2[O-])c1 (stereo not drawn) [Example P757] | 0.0319
6 | Nc1ccc(-c2cnn(C(Cn3cc(F)cn3)c3ccc(-c4c(-n5cnnn5)ccc(Cl)c4F)c[n+]3[O-])c2)c(F)n1 (single isomer, unassigned) [Example P416] | 0.0033
7 | CN(CC(c1ccc(-c2c(-n3cnnn3)ccc(Cl)c2F)c[n+]1[O-])n1cc(-c2ccnc(C(F)(F)F)c2)cn1)C(=O)c1ccccc1 (single isomer, unassigned) [Example P423] | 0.0439
8 | NC(=O)c1ccc(-c2cnn(C(CCOC(F)F)c3ccc(-c4c(-n5cc(C(F)(F)F)nn5)ccc(Cl)c4F)c[n+]3[O-])c2)cc1F (stereo not drawn) [Example P844] | 0.0313
9 | [O-][n+]1cc(-c2c(-n3cnnn3)ccc(Cl)c2F)ccc1[C@@H](CCOC(F)F)n1cc(-c2nn(C(F)F)cc2Cl)cn1 [Example P572] | 0.0241
10 | CC(C)c1cc(-c2cnn(C(Cn3cc(F)cn3)c3ccc(-c4c(-n5cnnn5)ccc(Cl)c4F)c[n+]3[O-])c2)cc[n+]1[O-] (single isomer, unassigned) [Example P413] | 0.0193
11 | O=C1OCCN1CC(c1ccc(-c2c(-n3cnnn3)ccc(Cl)c2F)c[n+]1[O-])n1cc(-c2ccnc(C(F)(F)F)c2)cn1 (single isomer, unassigned) [Example P430] | 0.038
12 | [O-][n+]1cc(-c2c(-n3cnnn3)ccc(Cl)c2F)ccc1C(C(O)c1ccccc1)n1cc(-c2ccnn2C(F)F)cn1 (single isomer, unassigned) [Example P719] | 0.516
13 | CCOC(=O)C1CC1CC(c1ccc(-c2cc(Cl)ccc2-n2cnnn2)c[n+]1[O-])n1cc(-c2ccc(C(=O)O)cc2)cn1 (stereo not drawn) [Example P68] | 0.513
14 | [O-][n+]1cc(-c2c(-n3cnnn3)ccc(Cl)c2F)ccc1C(Cn1cc2c(n1)COCC2)n1cc(-c2ccnc(C(F)(F)F)c2)cn1 (stereo not drawn) [Example P463] | 0.0064
15 | O=C1CCCN1CC(c1ccc(-c2c(-n3cnnn3)ccc(Cl)c2F)c[n+]1[O-])n1cc(-c2cc[n+]([O-])cc2)cn1 (single isomer, unassigned) [Example P244] | 0.0224
16 | Cn1cc(-c2cnn(C(CC3CC3)c3ccc(-c4c(-n5cnnn5)ccc(Cl)c4F)c[n+]3[O-])c2)ccc1=O (stereo not drawn) [Example P216] | 0.296
17 | O=C1CCCN1CC(c1ccc(-c2c(-n3cnnn3)ccc(Cl)c2F)c[n+]1[O-])n1cc(-c2ccnc(F)c2)cn1 (stereo not drawn) [Example P257] | 0.0071
18 | Cn1ncc(Cl)c1-c1cnn(C(CC2CC2)c2ccc(-c3c(-n4cnnn4)ccc(Cl)c3F)c[n+]2[O-])c1 (stereo not drawn) [Example P555] | 0.573
19 | [O-][n+]1cc(-c2c(-n3cnnn3)ccc(Cl)c2F)ccc1[C@@H](Cn1ccc(OC(F)F)n1)n1cc(-c2ccnc(C(F)(F)F)c2)cn1 [Example P533] | 0.0077
20 | NC(=O)c1ccc(-c2cnn(C(CCOC(F)F)c3ccc(-c4c(-n5cc(Cl)nn5)ccc(Cl)c4F)c[n+]3[O-])c2)cc1F (single isomer, unassigned) [Example P875] | 0.0027
21 | COC(=O)Nc1ccc(-c2cnn(C(CC3CCCCO3)c3ccc(-c4c(-n5cnnn5)ccc(Cl)c4F)c[n+]3[O-])c2)cc1 (single isomer, unassigned) [Example P115] | 0.0291
22 | NC(=O)C1CC1CC(c1ccc(-c2c(-n3cnnn3)ccc(Cl)c2F)c[n+]1[O-])n1cc(-c2ccc(N)nc2F)cn1 (racemic) [Example P201] | 0.0739
23 | COC(=O)Nc1ccc(-c2cnn(C(Cn3cc(F)cn3)c3ccc(-c4c(-n5cnnn5)ccc(Cl)c4F)c[n+]3[O-])c2)cc1 (stereo not drawn) [Example P277] | 0.0133
24 | [O-][n+]1cc(-c2c(-n3cnnn3)ccc(Cl)c2F)ccc1C(CC1CC1)n1cc(-c2cnsc2)cn1 (stereo not drawn) [Example P456] | 0.63
25 | [O-][n+]1cc(-c2c(-n3cnnn3)ccc(Cl)c2F)ccc1C(CC1CC1)n1cc(-c2cnco2)cn1 (stereo not drawn) [Example P497] | 0.169
26 | CC1CC1C[C@H](c1ccc(-c2c(-n3cnnn3)ccc(Cl)c2F)c[n+]1[O-])n1cc(-c2c(F)nnn2C)cn1 (stereo partly drawn) [Example P768] | 0.0705
27 | [O-][n+]1cc(-c2c(-n3cnnn3)ccc(Cl)c2F)ccc1[C@@H](Cc1cn(C(F)F)nn1)n1cc(-c2ccnc(C(F)(F)F)c2)cn1 [Example P748] | 0.0064

Row | SMILES | IC50 [µM]
28 | [O-][n+]1ccc(-c2cnn(C(Cc3ccc(F)cc3)c3ccc(-c4c(OC(F)F)ccc(Cl)c4F)c[n+]3[O-])c2)cc1 (single isomer, unassigned) [Example Q19] | 0.0484
29 | CC1CC1CC(c1ccc(-c2c(-n3cnnn3)ccc(Cl)c2F)c[n+]1[O-])n1cc(-c2ncnn2C(F)F)cn1 (stereo not drawn) [Example P766] | > 0.1
30 | Cn1ncnc1-c1cnn([C@H](CCOC(F)F)c2ccc(-c3c(-n4cc(Cl)nn4)ccc(Cl)c3F)c[n+]2[O-])c1 [Example P722] | 0.0396
31 | Cn1nccc1-c1cnn(C(Cn2cc(F)cn2)c2ccc(-c3c(-n4cnnn4)ccc(Cl)c3F)c[n+]2[O-])c1 (single isomer, unassigned) [Example P501] | 0.736
32 | COC(=O)Nc1ccc(-c2cnn(C(CC3CCC(C)(C)CC3)c3ccc(-c4c(-n5cnnn5)ccc(Cl)c4F)c[n+]3[O-])c2)cc1 (stereo not drawn) [Example P122] | 0.26
33 | COC(=O)N(C)CC(c1ccc(-c2c(-n3cnnn3)ccc(Cl)c2F)c[n+]1[O-])n1cc(-c2cc[n+]([O-])c(C(F)F)c2)cn1 (single isomer, unassigned) [Example P392] | 0.0641
34 | [O-][n+]1cc(-c2c(C(F)F)ccc(Cl)c2F)ccc1C(CCOC(F)F)n1cc(-c2ccnc(C(F)(F)F)n2)cn1 (stereo not drawn) [Example Q29] | 0.259
35 | CC1CC1CC(c1ccc(-c2c(-n3cnnn3)ccc(Cl)c2F)c[n+]1[O-])n1cc(-c2ncnn2C(F)F)cn1 (stereo not drawn) [Example P765] | > 0.1
36 | O=C(NC1CC1)c1ccc(-c2cnn(C(CC3CCCCO3)c3ccc(-c4c(-n5cnnn5)ccc(Cl)c4F)c[n+]3[O-])c2)cc1 (single isomer, unassigned) [Example P142] | 0.108
37 | N#Cc1cnn(C(F)F)c1-c1cnn(C(CC2CC2)c2ccc(-c3c(-n4cnnn4)ccc(Cl)c3F)c[n+]2[O-])c1 (single isomer, unassigned) [Example P663] | 0.933
38 | O=C(O)c1ccc(-c2cnn(C(c3ccc(-c4cc(Cl)ccc4-n4cnnn4)c[n+]3[O-])C(O)c3ccccc3)c2)cc1 (single isomer, unassigned) [Example P119] | 0.155
39 | CC(C)(C)OCC[C@H](c1ccc(-c2c(-n3cnnn3)ccc(Cl)c2F)c[n+]1[O-])n1cc(-c2ccnn2C(F)F)cn1 [Example P640] | 0.179
40 | Nc1ccc(-c2cnn(C(Cn3cc(F)cn3)c3ccc(-c4c(-n5cnnn5)ccc(Cl)c4F)c[n+]3[O-])c2)c(F)n1 (stereo not drawn) [Example P281] | 0.0026
41 | O=C(O)c1ccc(-c2cnn(C(CCOC(F)F)c3ccc(-c4c(-n5cc(Cl)nn5)ccc(Cl)c4F)c[n+]3[O-])c2)cc1F (single isomer, unassigned) [Example P881] | 0.0073
42 | [O-][n+]1cc(-c2c(-n3cnnn3)ccc(Cl)c2F)ccc1C(CC1CC1)n1cc(-c2ccnc(F)c2)cn1 (single isomer, unassigned) [Example P264] | 0.0463
43 | Cn1ncnc1-c1cnn([C@H](CCOC(F)F)c2ccc(-c3c(-n4cc(C5CC5)nn4)ccc(Cl)c3F)c[n+]2[O-])c1 [Example P781] | 0.203
44 | O=C(NC1CC1)c1ccc(-c2cnn(C(Cc3ccc(F)cc3)c3ccc(-c4c(-n5cnnn5)ccc(Cl)c4F)c[n+]3[O-])c2)cc1 (stereo not drawn) [Example P125] | 0.0033
45 | Cn1ncnc1-c1cnn(C(CC2CNCCO2)c2ccc(-c3c(-n4cc(C(F)(F)F)nn4)ccc(Cl)c3F)c[n+]2[O-])c1 (stereo not drawn) [Example P934] | 0.326
46 | NC(=O)c1ccc(-c2cnn(C(Cc3ccn(C(F)F)n3)c3ccc(-c4c(OC(F)F)ccc(Cl)c4F)c[n+]3[O-])c2)cc1F (single isomer, unassigned) [Example Q72] | 0.544
47 | COC(=O)N(C)CC(c1ccc(-c2c(-n3cnnn3)ccc(Cl)c2F)c[n+]1[O-])n1cc(-c2ccnc(F)c2)cn1 (single isomer, unassigned) [Example P355] | 0.933
48 | CCOc1cc(C(CC2CC2)n2cc(-c3ncnn3C)cn2)[n+]([O-])cc1-c1cc(Cl)ccc1-n1cc(C(F)(F)F)nn1 (single isomer, unassigned) [Example P945] | 0.324
49 | Cn1cc(C[C@H](c2ccc(-c3c(-n4cnnn4)ccc(Cl)c3F)c[n+]2[O-])n2cc(-c3ccnc(C(F)(F)F)c3)cn2)nn1 [Example P736] | 0.0084
50 | CNc1ncc(-c2cnn([C@H](CCOC(F)F)c3ccc(-c4c(-n5cnnn5)ccc(Cl)c4F)c[n+]3[O-])c2)cn1 [Example P552] | 0.056
51 | [O-][n+]1cc(-c2c(-n3cnnn3)ccc(Cl)c2F)ccc1[C@H](Cc1ccc(F)cc1)n1cc(-c2ccnn2C(F)F)cn1 [Example P566] | 0.0676
52 | Cn1cc(CC(c2ccc(-c3c(-n4cnnn4)ccc(Cl)c3F)c[n+]2[O-])n2cc(-c3ccnc(C(F)(F)F)c3)cn2)nn1 (stereo not drawn) [Example P695] | 0.0437
53 | [O-][n+]1cc(-c2c(-n3cnnn3)ccc(Cl)c2F)ccc1C(CC1CC1)n1cc(-c2ccncc2)cn1 (single isomer, unassigned) [Example P262] | 0.0318
54 | NC(=O)C1CC1CC(c1ccc(-c2c(-n3cnnn3)ccc(Cl)c2F)c[n+]1[O-])n1cc(-c2ccc(N)nc2F)cn1 (single isomer, unassigned) [Example P341] | 0.32
